In US12516016B2, “GPX4 inhibitors, pharmaceutical compositions thereof, and their use for treating GPX4-mediated diseases” (EUBULUS BIOTHERAPEUTICS (HONG KONG) LIMITED, priority 2020, dated 2026):

System: hepatocellular carcinoma cell line Hub-7
Test: Cell proliferation assay (CELL-TITER GLO cell viability)
Type: cell-based
Details: 24 h, Hub-7 cells, 24 h incubation, read-out: Inhibition of Cell Proliferation EC50
Description: The activity of a test compound was determined in a cell proliferation assay using the hepatocellular carcinoma cell line […]. Cells (4,000 cells per well) were seeded in a 96-well tissue culture plate. After incubated overnight, a test compound was added at predetermined concentrations, starting with 10 μM and followed by 3-fold serial dilution. After the cells were incubated for 24 h, cell viability was determined using a CELL-TITER GLO® assay. The CELL-TITER GLO® reagent (50 μL) was added to each well and the luminescence was measured by a multimode microplate reader after a brief period of shaking. EC50 values were determined for the test compound. The results are summarized in Table 1, wherein A represents a value no greater than 100 nM, B represents a value greater than 100 nM but no greater than 500 nM, C represents a value greater than 500 nM but no greater than 2 μM, D represents a value greater than 2 μM but no greater than 10 μM; and E represents a value greater than 10 μM.

| SMILES | EC50 [nM] |
| --- | --- |
| C#CC(=O)N(c1cccc(NC(C)=O)c1)C(C(=O)NCc1ccccc1)c1cccc(N)c1 (stereo not shown) [A44, N-(3-Acetamidophenyl)-N-(1-(3-aminophenyl)-2-(benzylamino)-2-oxoethyl)-propiolamide] | 2000 to 10000 |
| C#CC(=O)N(c1ccc(O)cc1)C(C(=O)NCc1ccccc1)c1cccc(N)c1 (stereo not shown) [A45, N-(1-(3-Aminophenyl)-2-(benzylamino)-2-oxoethyl)-N-(4-hydroxyphenyl)-propiolamide] | 2000 to 10000 |
| C#CC(=O)N(c1cccc(C(N)=O)c1)C(C(=O)NCc1ccccc1)c1cccc(N)c1 (stereo not shown) [A47, 3-(N-(1-(3-Aminophenyl)-2-(benzylamino)-2-oxoethyl)propiolamido)-benzamide] | > 10000 |
| C#CC(=O)N(c1ccc(C#N)cc1)C(C(=O)NCc1ccccc1)c1cccc(N)c1 (stereo not shown) [A48, N-(1-(3-Aminophenyl)-2-(benzylamino)-2-oxoethyl)-N-(4-cyanophenyl)-propiolamide] | ≤ 100 |
| C#CC(=O)N(c1ccc(C(=O)OC)cc1)C(C(=O)NCc1ccccc1)c1cccc(N)c1 (stereo not shown) [A49, Methyl 4-(N-(1-(3-aminophenyl)-2-(benzylamino)-2-oxoethyl)propiolamido)-benzoate] | ≤ 100 |
| C#CC(=O)N(c1ccc(S(N)(=O)=O)cc1)C(C(=O)NCc1ccccc1)c1cccc(N)c1 (stereo not shown) [A50, N-(1-(3-Aminophenyl)-2-(benzylamino)-2-oxoethyl)-N-(4-sulfamoylphenyl)-propiolamide] | > 10000 |
| C#CC(=O)N(c1ccc(Cl)cc1)C(C(=O)NCc1ccccc1)c1ccc(N)cc1 (stereo not shown) [A52, N-(2-(benzylamino)-1-(4-aminophenyl)-2-oxoethyl)-N-(4-chlorophenyl)propiolamide] | ≤ 100 |
| C#CC(=O)N(c1ccc(OC)c(Cl)c1)C(C(=O)NCc1ccccc1)c1ccc(N)cc1 (stereo not shown) [A53, N-(1-(4-Aminophenyl)-2-(benzylamino)-2-oxoethyl)-N-(3-chloro-4-methoxy-phenyl)propiolamide] | ≤ 100 |
| C#CC(=O)N(c1cccc(C(=O)OC)c1)C(C(=O)NCc1ccccc1)c1ccc(N)cc1 (stereo not shown) [A54, Methyl 3-(N-(1-(4-aminophenyl)-2-(benzylamino)-2-oxoethyl)propiolamido)-benzoate] | ≤ 100 |
| C#CC(=O)N(c1cccc(C#N)c1)C(C(=O)NCc1ccccc1)c1ccc(N)cc1 (stereo not shown) [A55, N-(1-(4-Aminophenyl)-2-(benzylamino)-2-oxoethyl)-N-(3-cyanophenyl)-propiolamide] | 100 to 500 |
| C#CC(=O)N(c1cccc(CO)c1)C(C(=O)NCc1ccccc1)c1ccc(N)cc1 (stereo not shown) [A56, N-(1-(4-Aminophenyl)-2-(benzylamino)-2-oxoethyl)-N-(3-(hydroxymethyl)-phenyl)propiolamide] | 2000 to 10000 |
| C#CC(=O)N(c1cc(Cl)ccc1F)C(C(=O)NCc1ccccc1)c1ccc(N)cc1 (stereo not shown) [A57, N-(1-(4-Aminophenyl)-2-(benzylamino)-2-oxoethyl)-N-(5-chloro-2-fluoro-phenyl)propiolamide] | ≤ 100 |
| C#CC(=O)N(c1cccc(O)c1)C(C(=O)NCc1ccccc1)c1ccc(N)cc1 (stereo not shown) [A58, N-(1-(4-Aminophenyl)-2-(benzylamino)-2-oxoethyl)-N-(3-hydroxyphenyl)-propiolamide] | 2000 to 10000 |
| C#CC(=O)N(c1cccc(F)c1)C(C(=O)NCc1ccccc1)c1ccc(N)cc1 (stereo not shown) [A59, N-(1-(4-Aminophenyl)-2-(benzylamino)-2-oxoethyl)-N-(3-fluorophenyl)-propiolamide] | 100 to 500 |
| C#CC(=O)N(c1ccc(OC)cc1)C(C(=O)NCc1ccccc1)c1ccc(N)cc1 (stereo not shown) [A60, N-(1-(4-Aminophenyl)-2-(benzylamino)-2-oxoethyl)-N-(4-methoxyphenyl)-propiolamide] | ≤ 100 |
| C#CC(=O)N(c1cccc(OC)c1)C(C(=O)NCc1ccccc1)c1ccc(N)cc1 (stereo not shown) [A61, N-(1-(4-Aminophenyl)-2-(benzylamino)-2-oxoethyl)-N-(3-methoxyphenyl)-propiolamide] | ≤ 100 |
| C#CC(=O)N(c1cccc(C(N)=O)c1)C(C(=O)NCc1ccccc1)c1ccc(N)cc1 (stereo not shown) [A62, 3-(N-(1-(4-Aminophenyl)-2-(benzylamino)-2-oxoethyl)propiolamido)-benzamide] | > 10000 |
| C#CC(=O)N(c1cccc(NC(C)=O)c1)C(C(=O)NCc1ccccc1)c1ccc(N)cc1 (stereo not shown) [A63, N-(3-Acetamidophenyl)-N-(1-(4-aminophenyl)-2-(benzylamino)-2-oxoethyl)-propiolamide] | 2000 to 10000 |
| C#CC(=O)N(c1ccc(O)cc1)C(C(=O)NCc1ccccc1)c1ccc(N)cc1 (stereo not shown) [A64, N-(1-(4-Aminophenyl)-2-(benzylamino)-2-oxoethyl)-N-(4-hydroxyphenyl)-propiolamide] | 2000 to 10000 |
| C#CC(=O)N(c1ccc(Cl)c(Cl)c1)C(C(=O)NCc1ccccc1)c1ccc(N)cc1 (stereo not shown) [A65, N-(1-(4-Aminophenyl)-2-(benzylamino)-2-oxoethyl)-N-(3,4-dichlorophenyl)-propiolamide] | ≤ 100 |

| SMILES | EC50 [nM] |
| --- | --- |
| C#CC(=O)N(c1ccc(C#N)cc1)C(C(=O)NCc1ccccc1)c1ccc(N)cc1 (stereo not shown) [A66, N-(1-(4-Aminophenyl)-2-(benzylamino)-2-oxoethyl)-N-(4-cyanophenyl)-propiolamide] | ≤ 100 |
| C#CC(=O)N(c1ccc(CO)cc1)C(C(=O)NCc1ccccc1)c1ccc(N)cc1 (stereo not shown) [A67, N-(1-(4-Aminophenyl)-2-(benzylamino)-2-oxoethyl)-N-(4-(hydroxymethyl)-phenyl)propiolamide] | 500 to 2000 |
| C#CC(=O)N(c1ccc(S(N)(=O)=O)cc1)C(C(=O)NCc1ccccc1)c1ccc(N)cc1 (stereo not shown) [A68, N-(1-(4-Aminophenyl)-2-(benzylamino)-2-oxoethyl)-N-(4-sulfamoylphenyl)-propiolamide] | > 10000 |
| C#CC(=O)N(c1ccc(C(=O)OC)cc1)C(C(=O)NCc1ccccc1)c1ccc(N)cc1 (stereo not shown) [A69, Methyl 4-(N-(1-(4-aminophenyl)-2-(benzylamino)-2-oxoethyl)propiolamido)-benzoate] | ≤ 100 |
| C#CC(=O)N(c1cccc(N)c1)C(C(=O)NCc1ccccc1)c1ccc(N)cc1 (stereo not shown) [A70, N-(3-Aminophenyl)-N-(1-(4-aminophenyl)-2-(benzylamino)-2-oxoethyl)-propiolamide] | 500 to 2000 |
| C#CC(=O)N(c1ccc(NS(C)(=O)=O)cc1)C(C(=O)NCc1ccccc1)c1ccc(N)cc1 (stereo not shown) [A71, N-(1-(4-Aminophenyl)-2-(benzylamino)-2-oxoethyl)-N-(4-(methylsulfonamido)-phenyl)propiolamide] | 2000 to 10000 |
| C#CC(=O)N(c1cccc(Cl)c1)C(C(=O)NCc1ccccc1)C1CC1 (stereo not shown) [A72, N-(2-(benzylamino)-1-cyclopropyl-2-oxoethyl)-N-(3-chlorophenyl)propiolamide] | 100 to 500 |
| C#CC(=O)N(c1cccc(C(=O)OC)c1)C(C(=O)NCc1ccccc1)c1cccs1 (stereo not shown) [A73, Methyl 3-(N-(2-(benzylamino)-2-oxo-1-(thiophen-2-yl)ethyl)propiolamido)-benzoate] | ≤ 100 |
| C#CC(=O)N(c1cccc(Cl)c1)C(C(=O)NCc1ccccc1)c1ccccc1 (stereo not shown) [A74, N-(2-(Benzylamino)-2-oxo-1-phenylethyl)-N-(3-chlorophenyl)propiolamide] | ≤ 100 |
| C#CC(=O)N(c1cccc(Cl)c1)C(C(=O)NCc1ccccc1)c1cccs1 (stereo not shown) [A75, N-(2-(Benzylamino)-2-oxo-1-(thiophen-2-yl)ethyl)-N-(3-chlorophenyl)-propiolamide] | ≤ 100 |
| C#CC(=O)N(c1cccc(C(=O)OC)c1)C(C(=O)NCc1ccccc1)c1ccccc1 (stereo not shown) [A76, Methyl 3-(N-(2-(benzylamino)-2-oxo-1-phenylethyl)propiolamido)benzoate] | ≤ 100 |
| C#CC(=O)N(c1cccc(Cl)c1)C(C(=O)NCc1ccccc1)C1CCC(C(=O)OC)CC1 (stereo not shown) [A77, Methyl 4-(2-(benzylamino)-1-(N-(3-chlorophenyl)propiolamido)-2-oxoethyl)-cyclohexane-1-carboxylate] | 100 to 500 |
| C#CC(=O)N(c1cccc(Cl)c1)C(C(=O)NCc1ccccc1)C1CCOCC1 (stereo not shown) [A78, N-(2-(Benzylamino)-2-oxo-1-(tetrahydro-2H-pyran-4-yl)ethyl)-N-(3-chloro-phenyl)propiolamide] | 500 to 2000 |
| C#CC(=O)N(c1cccc(Cl)c1)C1(C(=O)NCc2ccccc2)CCC(C(=O)OC)CC1 (stereo not shown) [A79, Methyl 4-(benzylcarbamoyl)-4-(N-(3-chlorophenyl)propiolamido)-cyclohexane-carboxylate] | ≤ 100 |
| C#CC(=O)N(c1cccc(Cl)c1F)C(C(=O)NCc1ccccc1)c1ccccc1 (stereo not shown) [A81, N-(2-(Benzylamino)-2-oxo-1-phenylethyl)-N-(3-chloro-2-fluorophenyl)-propiolamide] | 100 to 500 |
| C#CC(=O)N(c1cccc(Cl)c1Cl)C(C(=O)NCc1ccccc1)c1ccccc1 (stereo not shown) [A82, N-(2-(Benzylamino)-2-oxo-1-phenylethyl)-N-(2,3-dichlorophenyl)-propiolamide] | ≤ 100 |
| C#CC(=O)N(c1cccc(Cl)c1)C(C(=O)NCc1ccccc1)c1cccc(OCC(=O)OC)c1 (stereo not shown) [A83, Methyl 2-(3-(2-(benzylamino)-1-(N-(3-chlorophenyl)propiolamido)-2-oxoethyl)-phenoxy)acetate] | 100 to 500 |
| C#CC(=O)N(Cc1ccc(C(=O)OC)cc1)C(C)C(=O)NCc1ccccc1 (stereo not shown) [A84, Methyl 4-((N-(1-(benzylamino)-1-oxopropan-2-yl)propiolamido)methyl)-benzoate] | 100 to 500 |
| C#CC(=O)N(c1cccc2nsnc12)C(C(=O)NCc1ccccc1)c1ccccc1 (stereo not shown) [A85, N-(Benzo[c][1,2,5]thiadiazol-4-yl)-N-(2-(benzylamino)-2-oxo-1-phenylethyl)-propiolamide] | ≤ 100 |
| C#CC(=O)N(c1cccc(Cl)c1)C1(C(=O)NCc2ccccc2)COC1 [A86, N-Benzyl-3-(N-(3-chlorophenyl)propiolamido)oxetane-3-carboxamide] | 100 to 500 |
